Earlier results, collected in patent US11261449B2, “Anti-cancer RNA aptamers” (CITY OF HOPE, priority 2015, dated 2022).

How the values were obtained:
HepG2 cells = settings: HepG2, Reebye et al.; cited from earlier work
tumor burden = settings: intravenous injection; cited from earlier work

Substance: C/EBPα-saRNA: saRNA targeting CCAAT/enhancer-binding protein-α; sense and antisense strands AW1, SEQ ID NO:22/23 (sense CGGUCAUUGUCACUGGUCAUU; antisense UGACCAGUGACAAUGACCGUU; listed as RNA, chemistry not fully specified)
- cell proliferation (HepG2 cells): decreases cell proliferation in HepG2 cells
- tumor burden (tumor burden): decreased tumor burden
